Test [1] deals with T1, human BRD4 bromodomain II (Homo sapiens, UniProt O60885).
T1 construct: human BRD4 bromodomain II [based on Genbank NM_058243, residues 349-460]; host or cells: E. coli
Nature of the test: Bromodomain binding assay (AlphaScreen), BRD4 BDII. In a few lines:
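AlphaScreen competition with biotinylated H4 peptide (aa 1-21, K5/K8/K12/K16Ac), using nickel-chelate acceptor and streptavidin donor beads. Targets were His6-BRD4 BDI (44-170) or BDII (349-460), with a 30 min compound preincubation over a 10-point 3-fold series. IC50 was fitted from percentage peptide binding.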

For test [2], the system named is human SKM-1 acute myeloid leukemia cells. Nature of the test: SKM-1 antiproliferation cell-based assay (ATPlite). The procedure, abridged: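 Log-phase cells in RPMI 1640/15% FBS were seeded at 34722 cells/mL and exposed for 4 days to nine-concentration DMSO serial dilutions in triplicate. Viability was read as ATP luminescence (ATPlite 1step), and IC50 values came from variable-slope non-linear regression.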
A general note: In ATP-based viability assays light output follows the ATP content of the culture.

The mark [3] stands for this setting: AlphaScreen assay, Table C2, read-out: BRD4 BDII IC50.
[4] abbreviates: Homo sapiens, SKM-1, 96 h, SKM-1 antiproliferation assay, 4 days, Table C2.
The mark [5] stands for this setting: BRD4 BDII AlphaScreen assay, read-out: BRD4 BD2 IC50.
Where [6] appears, read: Homo sapiens, SKM-1, SKM-1 antiproliferation assay.

The results in this text go back to patent publication US20250179059A1 (The Regents of the University of California, priority 2021, published 2025).

Read-outs that look alike come from different tables or passages of the source.

As a reminder, the IC50 is the concentration needed to halve the response being measured. In general, GI50 refers to the concentration that inhibits growth by half. A low value points to greater sensitivity of the cells.

In the case of `O=c1sccn1-c1ccc(-c2cc(F)cc(-c3ccnc(N4CCNCC4)c3)c2O)cc1Cl` [Example 473, 3-(3-chloro-5′-fluoro-2′-hydroxy-3′-(2-(piperazin-1-yl)pyridin-4-yl)-[1,1′-biphenyl]-4-yl)thiazol-2(3H)-one], the IC50 in test [1] (setting [3]) was in the range of 1 to 10 nM. In test [2] (setting [4]), this compound gave a GI50 of 0.3 to 30 nM.
In the case of `CN(C)[C@@H]1CN(c2cc(-c3cc(F)cc(-c4ccc(-n5ccn(C)c5=O)c(Cl)c4)c3O)ccn2)C[C@H]1O` [Example 752, 1-(3-chloro-3′-(2-((3R,4R)-3-(dimethylamino)-4-hydroxypyrrolidin-1-yl)pyridin-4-yl)-5′-fluoro-2′-hydroxy-[1,1′-biphenyl]-4-yl)-3-methyl-1H-imidazol-2(3H)-one], in test [1] (setting [3]), the 50% inhibitory concentration (IC50) was in the range of 0.01 to 1 nM. In test [2] (setting [4]), the GI50 was in the range of 0.3 to 30 nM.
On the same counts, the results for `CN1CCN(c2c(F)cc(-c3cc(F)cc(-c4ccnc(N5CCNCC5)c4)c3O)cc2F)C1=O` [Example 384, 1-methyl-3-(3,5,5′-trifluoro-2′-hydroxy-3′-(2-(piperazin-1-yl)pyridin-4-yl)-[1,1′-biphenyl]-4-yl)imidazolidin-2-one] are 10 to 100 nM and 300 to 3000 nM.
For `Cn1ccn(-c2ccc(-c3cc(F)cc(-c4ccnc(N5CCNC(C6CC6)C5)c4)c3O)cc2Cl)c1=O` (stereo not drawn) [Example 643, 1-(3-chloro-3′-(2-(3-cyclopropylpiperazin-l-yl)pyridin-4-yl)-5′-fluoro-2′-hydroxy-[1,1′-biphenyl]-4-yl)-3-methyl-1H-imidazol-2(3H)-one], in test [1] (setting [3]), the half-maximal inhibitory concentration (IC50) was 0.01 to 1 nM. Moreover, in test [2] (setting [4]), the GI50 lay within 30 to 300 nM.
On to `CNc1ncc(-c2cc(F)cc(-c3ccc(-n4ccn(C)c4=O)c(Cl)c3)c2O)cc1N1CCN(C(C)(C)C)CC1` [Example 923, 1-(3′-(5-(4-(tert-Butyl)piperazin-1-yl)-6-(methylamino)pyridin-3-yl)-3-chloro-5′-fluoro-2′-hydroxy-[1,1′-biphenyl]-4-yl)-3-methyl-1H-imidazol-2(3H)-one], for which, in test [1] (setting [5]), the IC50 is 0.01 to 1 nM. In addition, in test [2] (setting [6]), the GI50 is 0.3 to 30 nM.
In the case of `CNC1CCN(c2cncc(-c3cc(F)cc(-c4ccc(-n5ccn(C)c5=O)c(Cl)c4)c3O)c2)CC1` [Example 516, 1-(3-chloro-5′-fluoro-2′-hydroxy-3′-(5-(4-(methylamino)piperidin-1-yl)pyridin-3-yl)-[1,1′-biphenyl]-4-yl)-3-methyl-1H-imidazol-2(3H)-one], the IC50 in test [1] (setting [3]) was 1 to 10 nM. For the same compound, in test [2] (setting [4]), the concentration for 50% growth inhibition (GI50) fell in the range of 0.3 to 30 nM.
Regarding `CC[C@@]1(O)CCN(c2cc(-c3cc(F)cc(-c4ccc(-n5ccn(C)c5=O)c(Cl)c4)c3O)ccn2)C1` [Example 820, (R)-1-(3-chloro-3′-(2-(3-ethyl-3-hydroxypyrrolidin-1-yl)pyridin-4-yl)-5′-fluoro-2′-hydroxy-[1,1′-biphenyl]-4-yl)-3-methyl-1H-imidazol-2(3H)-one], the IC50 in test [1] (setting [3]) lay in the range of 1 to 10 nM. The compound further showed a GI50 in test [2] (setting [4]) of 0.3 to 30 nM.
As for `Cc1cc(-c2ccc(-n3ccn(C)c3=O)c(Cl)c2)c(O)c(-c2cnc(C)c(N3CCC4(CCCN4C(C)C)C3)c2)n1` (stereo not shown) [Example 973, 1-(2-chloro-4-(3-hydroxy-5′-(1-isopropyl-1,7-diazaspiro[4.4]nonan-7-yl)-6,6′-dimethyl-[2,3′-bipyridin]-4-yl)phenyl)-3-methyl-1H-imidazol-2(3H)-one], the IC50 in test [1] (setting [5]) was 0.01 to 1 nM. This compound also gave a GI50 in test [2] (setting [6]) of 0.3 to 30 nM.
On to `O=C1CCCN1c1ccc(-c2cc(F)cc(-c3ccnc(N4CC5(CNC5)C4)c3)c2O)cc1F` [Example 285, 1-(3′-(2-(2,6-diazaspiro[3.3]heptan-2-yl)pyridin-4-yl)-3,5′-difluoro-2′-hydroxy-[1,1′-biphenyl]-4-yl)pyrrolidin-2-one], for which, in test [1] (setting [3]), the IC50 is 10 to 100 nM. In addition, in test [2] (setting [4]), the GI50 is 300 to 3000 nM.
Consider `Cn1ccn(-c2ccc(-c3cc(F)cc(-c4cc(N5CCN(C(C)(C)C)CC5)ccn4)c3O)cc2Cl)c1=O` [Example 953, 1-(3′-(4-(4-(tert-butyl)piperazin-1-yl)pyridin-2-yl)-3-chloro-5′-fluoro-2′-hydroxy-[1,1′-biphenyl]-4-yl)-3-methyl-1H-imidazol-2(3H)-one], for which the IC50 in test [1] (setting [5]) is over 100 nM. In test [2] (setting [6]), this compound yielded a GI50 of 300 to 3000 nM.
Regarding `CC(C)N1CCC[C@@]12CCN(c1cccc(-c3cc(F)cc(-c4ccc(-n5ccn(C)c5=O)c(Cl)c4)c3O)c1)C2` [Example 966, (S)-1-(3-chloro-5′-fluoro-2′-hydroxy-3″-(1-isopropyl-1,7-diazaspiro[4.4]nonan-7-yl)-[1,1′:3′,1″-terphenyl]-4-yl)-3-methyl-1,3-dihydro-2H-imidazol-2-one], in test [1] (setting [5]), the 50% inhibitory concentration (IC50) lay within 1 to 10 nM. This compound registered a 50% growth inhibitory concentration (GI50) in test [2] (setting [6]) of 30 to 300 nM.
`CC(=O)N[C@@]1(C)CCN(c2cc(-c3cc(F)cc(-c4ccc(-n5ccn(C)c5=O)c(Cl)c4)c3O)cc(=O)n2C)C1` [Example 774, (S)-N-(1-(4-(3′-chloro-5-fluoro-2-hydroxy-4′-(3-methyl-2-oxo-2,3-dihydro-1H-imidazol-1-yl)-[1,1′-biphenyl]-3-yl)-1-methyl-6-oxo-1,6-dihydropyridin-2-yl)-3-methylpyrrolidin-3-yl)acetamide]: the IC50 in test [1] (setting [3]) lay within 1 to 10 nM. Moreover, the GI50 in test [2] (setting [4]) fell in the range of 30 to 300 nM.
In the case of `CC(C)c1cc(-c2cc(F)cc(-c3cccc(N4CCN(C(C)(C)C)CC4)c3)c2O)cc(Cl)c1-n1ccn(C)c1=O` [Example 935, (S)-1-(3″-(4-(tert-butyl)piperazin-1-yl)-3-chloro-5′-fluoro-2′-hydroxy-5-isopropyl-[1,1′:3′,1″-terphenyl]-4-yl)-3-methyl-1,3-dihydro-2H-imidazol-2-one], the concentration for half-maximal inhibition (IC50) in test [1] (setting [5]) is over 100 nM. The same compound returned a 50% growth inhibitory concentration (GI50) in test [2] (SKM-1 antiproliferation assay) of 300 to 3000 nM.
With `CC(C)N1CCN(c2ccc(-c3cc(F)cc(-c4ccnc(N5CCNCC5)c4)c3O)cc2Cl)C1=O` [Example 364, 1-(3-chloro-5′-fluoro-2′-hydroxy-3′-(2-(piperazin-1-yl)pyridin-4-yl)-[1,1′-biphenyl]-4-yl)-3-isopropylimidazolidin-2-one], in test [1] (setting [3]), the half-inhibitory concentration (IC50) was over 100 nM. In addition, the concentration for 50% growth inhibition (GI50) in test [2] (setting [4]) was at least 3000 nM.
`Cc1cc(-c2ccc(-n3ccn(C)c3=O)c(Cl)c2)c(O)c(-c2cc(N3CCNCC3)c3cc[nH]c3c2)c1` [Example 557, 1-(3-chloro-2′-hydroxy-5′-methyl-3′-(4-(piperazin-1-yl)-1H-indol-6-yl)-[1,1′-biphenyl]-4-yl)-3-methyl-1H-imidazol-2(3H)-one]: the 50% inhibitory concentration (IC50) in test [1] (setting [3]) was 1 to 10 nM. Moreover, the 50% growth inhibitory concentration (GI50) in test [2] (setting [4]) lay in the range of 0.3 to 30 nM.
For the compound `Cc1cc(-c2ccc(-n3ccn(C)c3=O)c(Cl)c2)c(O)c(-c2cc(Cl)cc(N3CCN(C(C)(C)C)CC3)c2)n1` [Example 999, 1-(4-(2-(3-(4-(tert-butyl)piperazin-1-yl)-5-chlorophenyl)-3-hydroxy-6-methylpyridin-4-yl)-2-chlorophenyl)-3-methyl-1H-imidazol-2(3H)-one], in test [1] (setting [5]), the IC50 fell in the range of 1 to 10 nM. The 50% growth inhibitory concentration (GI50) in test [2] (setting [6]) is 0.3 to 30 nM.
`COC(=O)CC1CN(c2cc(-c3cc(F)cc(-c4ccc(-n5ccn(C)c5=O)c(Cl)c4)c3O)ccn2)CCN1` (stereo not shown) [Example 679, methyl 2-(4-(4-(3′-chloro-5-fluoro-2-hydroxy-4′-(3-methyl-2-oxo-2,3-dihydro-1H-imidazol-1-yl)-[1,1′-biphenyl]-3-yl)pyridin-2-yl)piperazin-2-yl)acetate]: the half-inhibitory concentration (IC50) in test [1] (setting [3]) was in the range of 1 to 10 nM. In addition, in test [2] (setting [4]), the GI50 fell in the range of 30 to 300 nM.
